Laboratory results taken from patent US7947279B2, “Peptide having hydrolase activity” (The Trustees of Columbia University in the City of New York, priority 2005, dated 2011).
Entries after “also recorded” stand apart in the source; their conditions may differ.

How the values were obtained:
[1] = tested on: CA1-LTP in hippocampal slices; experiment: CA1-LTP in hippocampal slices (theta-burst); assay type: cell-based, mouse; conditions: for rescue of LTP at different concentrations, S18Y versus TAT-HA-Uch-L1 (words): 1 hr pre-treatment, then Aβ 200 nM 20 min, as low as 5 nM; for Aβ-induced impairment of CA1-LTP (words): fusion protein 20 nM 1 hr, then plus Aβ 200 nM 20 min
cAMP = experiment: Intracellular cAMP enzyme immunoassay; assay type: cell-based, rat; conditions: Aβ 3 μM 24 hrs alone
Procedure: Intracellular cAMP Enzyme Immunoassay. Hippocampal neurons from E18 rats were dissociated and plated on poly-L-lysine coated 6-well plates in minimum essential medium supplemented with N-2, glucose, albumin, pyruvic acid, antibiotics and antimycotics. […] After 24 hours, cell lysates were obtained and intracellular cAMP levels were measured using cAMP Biotrak Enzymeimmunoassay (EIA) System (Amersham) in accordance with manufacturer's instructions.

monoubiquitin = experiment: Monoubiquitin levels (quantitative Western blot); assay type: cell-based, mouse
Procedure: (§1) Western Blotting: Protein levels were assessed using standard procedures. Protein extraction was performed using buffer with and without detergent. For the extraction of protein using detergent, hippocampal tissues and cultured hippocampal neurons (5 DIV) were homogenized in RIPA buffer (50 mM Tris-HCl pH 7.4, 1% Triton X-100, 1% sodium deoxycholate, 0.1% SDS, 150 mM sodium chloride, 10 mM sodium fluoride, 30 mM sodium pyrophosphate, 50 mM sodium orthovanadate) containing 1× complete protease inhibitor (Roche) and 1 mM phenylmethylsulfonyl fluoride (PMSF). For extraction of proteins without detergent, hippocampal extracts were homogenized with disposable dounce homogenizers in buffer A, containing 10 mM HEPES pH 7.3, 300 mM sucrose, protease 1× complete protease inhibitor (Roche) and PMSF. After centrifugation at 10,000×g supernatant proteins were resolved on a 8% or 4-20% gradient Tris-Glycine gel, transferred onto PVDF or nitrocellulose membrane and blocked in 5% skim milk in PBS-Tween 0.1% (PBS-T). Membranes were probed with primary antibodies, and after washing with PBS-T incubated with an appropriate HRP-conjugated secondary antibody. The following antibodies were used: mouse monoclonal anti-ubiquitin (Chemicon), rabbit polyclonal anti-pCREB (Upstate Biotech.), rabbit polyclonal anti-PKA-RIIα (Santa Cruz Biotech. Inc), mouse monoclonal anti-Uch-L1 (Novocastra), monoclonal mouse anti-HA (Santa Cruz Biotech. Inc), and anti-PKA IIα. Detection was performed using HRP-conjugated secondary antibodies (Pierce, Rockford, Ill.). To control loading and transfer, protein immunoreactivities were normalized against total extracellular signal-regulated protein kinases (ERK1/2) levels with a rabbit analyzed using a rabbit polyclonal anti-ERK1/2 antibody (Cell Signaling Technology, Inc). NIH IMAGE was used to analyze the scanned blots and quantify the intensity of the protein signals.

Uch-L1 = experiment: Hydrolase (ubiquitin-AMC) assay on hippocampal slices; assay type: cell-based, mouse; conditions: 200 nM Aβ alone
Procedure: Slice preparation. Mice were decapitated and their hippocampi removed. […] Slices were permitted to recover from cutting for at least 90 min. before recordings. For experiments with lactacystin, slices were perfused with the drug or vehicle for 2 to 4 hrs in a small volume (10 ml) chamber.
Briefly, hippocampal tissue was treated with tissue protein extraction reagent (T-PER; Pierce) containing freshly added EDTA-free protease inhibitors. Homogenate was centrifuged at 10,000 rpm for 5 min. Protein concentration was measured in the supernatant using the BCA protein assay reagent. In some experiments hydrolysis was initiated by adding 10 μl of 20 nM Uch-L1 or Uch-L3 (Boston Biochem). The hydrolase assay was performed using fluorogenic ubiquitin-7-amino-4-methylcoumarin (ubiquitin-AMC) (Boston Biochem) as a substrate. The substrate was diluted in assay buffer (50 mM Tris-HCL, 0.5 mM EDTA, 5 mM dithiothreitol and 0.1 mg/ml ovalbumin, pH 7.6). Each reaction mixture containing 400 nM substrate and 100 μg enzyme sample was incubated for 5 min at room temperature. The reaction was monitored using a fluorescence spectrophotometer (CytoFluor Series 4000, ABI Inc) at 25° C. The free AMC fluorophore was excited at 380 nm and measured at 460 nm. […] In some experiments, hydrolysis was also measured on the soluble and insoluble fractions (FIG. 28D). In a group of experiments hydrolysis was measured by mixing ubiquitin-AMC with 20 nM TAT fusion proteins (FIG. 27C). In other experiments the substrate was Nedd8-AMC (Boston Biochem).

phospho-CREB at Ser-133 = experiment: Phospho-CREB (Ser-133) Western blot in hippocampal cultures; assay type: cell-based, rat; conditions: for glutamate-induced CREB phosphorylation (words): 3 μM Aβ 24 hrs alone; for effect of Aβ on glutamate-induced CREB phosphorylation (words): fusion protein 100 nM, 3 μM Aβ 24 hrs, 50 μM glutamate 15 min
Procedure: as §1
(§2) Preparation of Cell Cultures. Hippocampal cell cultures were prepared as previously described (Vitolo et al., 2002). In cell culture experiments fetuses at embryonic day 18 from timed pregnant Sprague-Dawley rats (Taconic Farms) were used. Fetuses were sacrificed and the hippocampi removed. Neurons were then dissociated, plated on 6 well-plates coated with poly-L-lysine and maintained in a defined serum-free medium containing minimum essential medium supplemented with N-2, glucose, albumin, pyruvic acid, antibiotics and antimycotics. […] 5 DIV cells were used for the experiments.

PKA [2] = experiment: PKA kinase activity in hippocampal cultures; assay type: cell-based, rat; conditions: 3 μM Aβ for 24 hrs alone
Procedure: PKA Kinase Activity Measurement. Primary hippocampal neurons from E18 rats were dissociated and cultured as described (Vitolo et al, Proc Natl Acad Sci USA 99:13217-13221 (2002)). […]
Hippocampal slices were lysed with RIPA lysis buffer and homogenized by Dounce homogenizer on ice. 5 DIV primary cultures were treated for 24 hrs and cells were lysed with RIPA lysis buffer.
Levels of intracellular PKA kinase activity were measured by PKA Kinase Activity Assay Kit (Stressxpress) according to manufacturer's instructions.
as §2

phospho-CREB = experiment: Phospho-CREB immunofluorescence in hippocampal slices; assay type: cell-based, mouse; conditions: for tetanus-induced increase in phospho-CREB (words): Aβ alone
[3] = tested on: BST at the Schaffer collateral/CA1 connection of hippocampal slices; experiment: Basal synaptic transmission (BST) in hippocampal slices; assay type: cell-based, mouse; conditions: fusion protein 20 nM 1 hr or Aβ 200 nM 20 min, alone
PKA RIIα = PKA RIIα levels in hippocampal slices (Western blot); assay type: cell-based, mouse; conditions: for PKA RIIα levels (words): Aβ 200 nM 20 min alone
Procedure: as §1

[4] = tested on: SY5Y neuroblastoma cells transfected with a degron CL1-GFP expression vector; experiment: Proteasome reporter assay (GFP^u); assay type: cell-based, human; conditions: substance alone
Procedure: Proteasome reporter assays. In this cell line, human neuroblastoma SH-SY5Y cells were permanently transfected with reporter construct consisting of green fluorescent protein (GFP) conjugated at its C-terminus to a short degron sequence (CL-1) (Gilon et al., 1998). […] The SY5Y-GFP^u cells were grown in 1×DMEM (Invitrogen) supplemented with 15% fetal bovine serum (JRH), 1× penicillin/streptomycin (Gibco). After indicated treatments, GFP^u concentrations were assayed by densitometric analysis of immunoblots of total protein extracts (10 ug/lane) using monoclonal GFP antibodies (Santa Cruz Biotechnology) and visualized with HRP-conjugated secondary antibodies and ECL (Pierce). Loading equalization was normalized by probing blots with anti-ERK antibodies (Santa Cruz Biotechnology).

PKA [5] = experiment: PKA kinase activity in hippocampal slices; assay type: cell-based, mouse

For `CCCCCCOC(=O)[C@]1(O)C[C@@H]2O[C@@]1(C)n1c3ccccc3c3c4c(c5c6ccccc6n2c5c31)C(=O)NC4` [KT5720, reference compound], which “reversal of LTP reduction by Uch-L1 fusion protein” value ([1]; KT5720 1 μM, Uch-L1 fusion protein 20 nM, Aβ 200 nM) is on record?
The value was “blocked”.

How did the “cAMP levels” value (cAMP) turn out when “Aβ: oligomeric Aβ42 prepared from lyophilized synthetic peptide (American Peptide) [reference compound]” was run?
Its value is “reduced cAMP levels”.

What about the “decrease of monoubiquitin levels” value (monoubiquitin; oligomeric Aβ42 200 nM for 20 min) of the same molecule?
The value was roughly 70%.

And the “monoubiquitin levels” value (monoubiquitin; substance alone)?
Its value is “reduced”.

What about the “ubiquitin-c-terminal hydrolase enzymatic activity” value (Uch-L1) of the same molecule?
Its value is 72.36±6.81 % of TAT-HA treated WT slices.

And the “glutamate-induced CREB phosphorylation (words)” value (phospho-CREB at Ser-133)?
Its value is “annulled the increase in phospho-CREB”.

And the “glutamate-induced CREB phosphorylation (words)” value (phospho-CREB at Ser-133; listed as Aβ42)?
The value was “strong decrease in CREB phosphorylation”.

What about the “PKA activity in cultures” value (PKA [2]) of the same molecule?
Its value is “reduced”.

And the “LTP” value ([1]; Aβ 200 nM alone)?
Its value is “markedly reduced; also recorded: LTP was reduced”.

What about the “LTP at 120 min after tetanus” value ([1]; oligomeric Aβ 200 nM, 20 min perfusion) of the same molecule?
Its value is 136.34±13.40 % of baseline slope.

And the “tetanus-induced increase in phospho-CREB (words)” value (phospho-CREB)?
Its value is “blocks the increase in phosphorylated CREB; also recorded: blocked the increase in phospho-CREB; also recorded: blockade of the increase in CA1-phospho-CREB”.

What about the “tetanus-induced increase in phospho-CREB (words)” value (phospho-CREB; listed as Aβ42) of the same molecule?
The value was “blocked the increase in CA1 immunofluorescence”.

And the “phospho-CREB immunofluorescence without theta-burst” value (phospho-CREB; no tetanus)?
The value was “did not increase immunofluorescence; also recorded: did not modify immunofluorescence; also recorded: neither Aβ42 alone nor TAT-HA-Uch-L1 alone nor TAT-HA-Uch-L1 paired with Aβ42 induced changes”.

And the “BST in WT slices (words)” value [3]?
Its value is “did not reveal any significant difference among treatments; also recorded: does not affect CA1-BST”.

What about the “PKA RIIα levels (words)” value (PKA RIIα) of the same molecule?
The value was “increase in PKA RIIα levels”.

And the “PKA RIIα levels (words)” value (PKA RIIα; listed as Aβ42)?
Its value is “marked increase in RIIα”.

And the “PKA RIIα levels (words)” value (PKA RIIα; listed as amyloid-beta)?
The value was “increased”.

What about the RIIα levels (PKA RIIα; Aβ42 200 nM for 20 minutes) of the same molecule?
The RIIα levels was 163.68±10.51 % of TAT-HA control slices.

And the “GFP^u levels” value [4]?
Its value is “increase in GFP levels”.

What about the “PKA activity in slices” value (PKA [5]; 200 nM Aβ for 20 min alone) of the same molecule?
Its value is “reduced”.

And the PKA activity (PKA [5]; 200 nM Aβ for 20 minutes)?
Its PKA activity is 71.75±2.21 % of control.

B1: TAT-HA-Uch-L1(S18Y): mutant TAT-HA-Uch-L1 construct, S18Y (ligase site), made by site-directed mutagenesis (protein, UniProt P09936 1-220, looked up, variant S18Y)
Ubiquitin carboxyl-terminal …: MQLKPMEINPEMLNKVLYRLGVAGQWRFVDVLGLEEESLGSVPAPACALLLLFPLTAQHENFRKKQIEELKGQEVSPKVYFMKQTIGNSCGTIGLIHAVANNQDKLGFEDGSVLKQFLSETEKMSPEDRAKCFEKNEAIQAAHDAVAQEGQCRVDDKVNFHFILFNNVDGHLYELDGRMPFPVNHGASSEDTLLKDAAKVCREFTEREQGEVRFSAVALC
modifications: fused to HIV TAT transduction peptide and HA tag
notes: mutant TAT-HA-Uch-L1 construct, S18Y (ligase site), made by site-directed mutagenesis
B1 was tested. Which “effect of Aβ on glutamate-induced CREB phosphorylation (words)” value (phospho-CREB at Ser-133) did it give?
The value was “totally blocked the effect of Aβ on CREB phosphorylation; also recorded: completely opposed”.

And the “effect of Aβ on glutamate-induced CREB phosphorylation (words)” value (phospho-CREB at Ser-133; listed as TAT-HA-Uch-L1 (S18Y))?
Its value is “completely opposed”.

What about the “rescue of LTP at different concentrations, S18Y versus TAT-HA-Uch-L1 (words)” value [1] of the same molecule?
Its value is “no difference between the two forms”.

And the “rescue of LTP at different concentrations, S18Y versus TAT-HA-Uch-L1 (words)” value ([1]; listed as TAT-HA-Uch-L1 (S18Y))?
Its value is “No difference was detected”.

And the “Aβ-induced impairment of CA1-LTP (words)” value [1]?
The value was “protected; also recorded: completely reversed”.

And the “Aβ-induced impairment of CA1-LTP (words)” value ([1]; listed as TAT-HA-Uch-L1 (S18Y))?
Its value is “significantly enhanced the amplitude of LTP”.

And the “LTP in slices not treated with Aβ (words)” value ([1]; fusion protein 20 nM, 1 hr, WT slices, 3 theta-burst trains)?
The value was “did not affect the amounts of potentiation”.

And the “baseline transmission in slices without tetanic stimulation” value ([1]; non-tetanized slices)?
The value was “Neither TAT-HA-Uch-L1(C90S) nor TAT-HA-Uch-L1(S18Y) affected baseline; also recorded: nor affected basal transmission”.
